# pIC50: −log10 of the molar value.
# Assays:
# cMET = cMET (Homo sapiens, UniProt P08581); test: Evaluation of inhibitory activity against MET (TR-FRET); type: biochemical; details: TR-FRET kinase assay, cMET protein
# Method: In addition, in order to measure the enzyme activity inhibition for cMET, the evaluation was performed in the same manner as the enzyme activity inhibition measurement experiment for the RON.
# (§1) Specifically, the compound was prepared to a concentration of 1 mM with 100% DMSO and was diluted 10 times in a stepwise manner through 3-fold dilution. 2 ul of the compound diluted in a stepwise manner was added to a 96-well-plate containing 48 ul of a 1× kinase reaction buffer (50 mM HEPES (pH 7.4), 0.05% BSA, 0.005% Tween-20, 1 mM DTT, 0.5 mM MnCl2, 20 mM MgCl2).
# The cMET protein was diluted to a concentration of 263 nM with a cMET storage buffer (50 mM Tris-HCl (pH 7.5), 150 mM NaCl, 0.05% Brij35, 1 mM DTT, 10% Glycerol), and then diluted again to a concentration of 2 nM with a 1× kinase reaction buffer. As a substrate cocktail, a MET-specific substrate mixture (5 uM TK peptide, […]) at a concentration 2 times the final reaction concentration.
# (§2) Thereafter, a 384-well-plate was prepared, and 2.5 μl of each of the diluted compounds of Examples was added to a corresponding well of experimental group wells, and 2.5 μl of a 4% DMSO solution was dispensed into high control wells and low control wells.
# (§3) Thereafter, 2.5 μL of 2 nM cMET was dispensed into the high control wells and the experimental group wells, and 2.5 μL of a 1× kinase reaction buffer was added to the low control wells, and the RON and the reaction buffer were centrifuged at room temperature for 40 seconds at 1000 RPM, and then incubated at room temperature for 20 to 30 minutes. Then, 5 uL of a substrate cocktail (2×) was dispensed into all wells, centrifuged at room temperature for 40 seconds at 1000 RPM, and then incubated at room temperature for 60 minutes. Thereafter, 5 uL of 90 mM EDTA was added to all wells to terminate the reaction, and then incubated again at room temperature for 5 minutes. Thereafter, 5 uL of a 4× phosphotyrosine antibody (Perkin Elmer) containing europium was added to all wells, and then incubated at room temperature for 60 minutes. After the incubation, the 384-well-plate was read with a Vison plate reader. At this time, the excitation wavelength was 340 nm, and the emission wavelength was 620 nm and 665 nm. The 1050 value of the compound of each Example was derived using the GraphPd Prism7 program.
# RON = RON (Homo sapiens, UniProt Q04912); test: Evaluation of inhibitory activity against RON (TR-FRET); type: biochemical; details: TR-FRET kinase assay, RON protein
# Method: In order to measure the inhibitory activity of each of the compounds of Examples against RON, the IC50 of each of the compounds was measured using a Time-Resolved Fluorescence Energy Transfer Chemistry (TR-FRET).
# as §1, with “a 1×kinase” for “a 1× kinase”, “7.4), 0.01%” for “7.4), 0.05% BSA, 0.005%”, “Tween-20, 5” for “Tween-20, 1”, “mM Na3VO4, 2 mM EGTA, 10” for “mM MnCl2, 20”
# The RON protein was diluted to a concentration of 49.3 nM with an RON storage buffer (50 mM Tris-HCl (pH 7.5), 150 mM NaCl, 0.5 mM EDTA, 0.02% Triton X-100), and then diluted again to a concentration of 0.4 nM with a 1×kinase reaction buffer. As a substrate cocktail, a RON-specific substrate mixture (40 uM ULight-labeled Poly GT, 100 nM ATP) at a concentration 2 times the final reaction concentration.
# as §2
# as §3, with “of 0.4” for “of 2”, “nM RON” for “nM cMET”, “of 30” for “of 90”, “The IC50” for “The 1050”
# Chain of RON (Q04912 25-1400, species assumed): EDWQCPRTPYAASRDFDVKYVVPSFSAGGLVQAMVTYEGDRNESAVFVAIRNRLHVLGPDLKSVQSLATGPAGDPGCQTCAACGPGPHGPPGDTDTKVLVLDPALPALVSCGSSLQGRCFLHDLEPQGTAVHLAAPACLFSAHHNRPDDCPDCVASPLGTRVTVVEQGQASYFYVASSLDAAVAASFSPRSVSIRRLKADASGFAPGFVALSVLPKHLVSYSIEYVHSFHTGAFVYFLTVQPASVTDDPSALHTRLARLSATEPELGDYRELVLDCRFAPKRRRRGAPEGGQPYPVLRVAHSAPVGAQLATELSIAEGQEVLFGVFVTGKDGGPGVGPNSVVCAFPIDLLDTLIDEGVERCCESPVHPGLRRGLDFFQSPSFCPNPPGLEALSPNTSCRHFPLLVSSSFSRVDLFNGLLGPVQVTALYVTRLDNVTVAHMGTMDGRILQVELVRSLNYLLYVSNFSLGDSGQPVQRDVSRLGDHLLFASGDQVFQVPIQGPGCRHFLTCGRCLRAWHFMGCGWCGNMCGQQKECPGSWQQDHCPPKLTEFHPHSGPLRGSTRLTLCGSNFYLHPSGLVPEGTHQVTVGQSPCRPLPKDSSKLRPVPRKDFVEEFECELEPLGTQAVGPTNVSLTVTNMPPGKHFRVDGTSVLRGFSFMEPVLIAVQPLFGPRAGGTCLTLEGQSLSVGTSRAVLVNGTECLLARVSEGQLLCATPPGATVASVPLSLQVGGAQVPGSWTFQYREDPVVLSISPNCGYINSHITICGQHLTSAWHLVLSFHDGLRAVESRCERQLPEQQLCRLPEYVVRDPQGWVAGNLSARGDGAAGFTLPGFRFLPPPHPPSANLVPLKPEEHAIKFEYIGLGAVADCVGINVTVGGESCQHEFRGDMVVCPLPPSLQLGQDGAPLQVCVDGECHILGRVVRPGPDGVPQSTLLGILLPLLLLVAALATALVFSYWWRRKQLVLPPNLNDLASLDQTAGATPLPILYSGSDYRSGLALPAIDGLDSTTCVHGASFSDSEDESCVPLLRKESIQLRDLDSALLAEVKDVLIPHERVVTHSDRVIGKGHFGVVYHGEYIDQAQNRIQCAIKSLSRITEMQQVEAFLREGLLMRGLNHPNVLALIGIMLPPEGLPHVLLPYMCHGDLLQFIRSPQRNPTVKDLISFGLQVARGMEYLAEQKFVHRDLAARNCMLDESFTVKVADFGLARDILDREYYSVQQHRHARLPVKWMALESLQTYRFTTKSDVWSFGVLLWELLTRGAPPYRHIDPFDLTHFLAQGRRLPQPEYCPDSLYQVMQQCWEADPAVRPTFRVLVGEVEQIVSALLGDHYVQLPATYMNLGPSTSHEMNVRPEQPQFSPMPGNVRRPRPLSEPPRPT
# Chain of cMET (P08581 25-1390): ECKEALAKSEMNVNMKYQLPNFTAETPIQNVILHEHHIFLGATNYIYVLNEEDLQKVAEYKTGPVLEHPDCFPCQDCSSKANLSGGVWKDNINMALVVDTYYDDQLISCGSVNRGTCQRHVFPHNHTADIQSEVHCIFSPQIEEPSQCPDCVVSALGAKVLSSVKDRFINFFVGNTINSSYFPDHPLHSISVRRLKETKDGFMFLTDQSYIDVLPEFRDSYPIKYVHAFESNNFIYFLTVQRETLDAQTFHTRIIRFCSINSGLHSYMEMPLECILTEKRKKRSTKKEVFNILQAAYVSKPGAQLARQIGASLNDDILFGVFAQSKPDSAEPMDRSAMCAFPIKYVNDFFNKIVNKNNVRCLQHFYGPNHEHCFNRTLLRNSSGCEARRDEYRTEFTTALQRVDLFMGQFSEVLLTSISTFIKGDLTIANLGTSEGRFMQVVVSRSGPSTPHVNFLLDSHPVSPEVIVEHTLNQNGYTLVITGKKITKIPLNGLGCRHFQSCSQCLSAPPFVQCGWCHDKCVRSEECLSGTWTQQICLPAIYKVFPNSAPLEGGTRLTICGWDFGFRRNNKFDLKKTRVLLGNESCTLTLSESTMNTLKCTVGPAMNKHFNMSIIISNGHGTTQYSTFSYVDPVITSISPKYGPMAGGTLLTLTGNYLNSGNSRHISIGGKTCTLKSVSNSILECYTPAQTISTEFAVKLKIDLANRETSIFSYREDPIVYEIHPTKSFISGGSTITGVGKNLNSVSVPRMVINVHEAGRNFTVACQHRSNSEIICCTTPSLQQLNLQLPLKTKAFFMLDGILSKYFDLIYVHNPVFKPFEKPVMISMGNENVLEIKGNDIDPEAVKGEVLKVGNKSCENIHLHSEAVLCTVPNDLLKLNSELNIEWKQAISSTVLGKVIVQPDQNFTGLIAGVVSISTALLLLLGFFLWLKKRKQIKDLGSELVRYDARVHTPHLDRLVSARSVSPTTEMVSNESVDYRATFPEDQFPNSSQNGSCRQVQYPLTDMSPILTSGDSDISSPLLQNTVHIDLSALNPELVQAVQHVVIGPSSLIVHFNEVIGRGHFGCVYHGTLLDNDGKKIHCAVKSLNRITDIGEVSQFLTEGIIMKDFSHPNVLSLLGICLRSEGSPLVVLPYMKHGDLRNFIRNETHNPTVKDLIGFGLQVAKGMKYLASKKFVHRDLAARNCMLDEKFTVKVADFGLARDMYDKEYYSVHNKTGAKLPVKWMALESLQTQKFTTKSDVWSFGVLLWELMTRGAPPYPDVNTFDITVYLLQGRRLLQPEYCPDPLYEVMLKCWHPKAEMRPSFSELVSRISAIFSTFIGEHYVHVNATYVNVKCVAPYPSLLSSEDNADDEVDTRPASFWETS
Structure (SMILES),pIC50 (cMET),pIC50 (RON)
"CC(C)n1c(=O)[nH]c2nccc(Oc3ccc(NC(=O)c4cnn(-c5ccc(F)cn5)c4C(F)(F)F)cc3F)c21 [Example 21, N-(3-fluoro-4-((1-isopropyl-2-oxo-2,3-dihydro-1H-imidazo[4,5-b]pyridine-7-yl)oxy)phenyl)-1-(5-fluoropyridine-2-yl)-5-(trifluoromethyl)-1H-pyrazole-4-carboxamide]",< 5.30,> 7.30
"CC(C)n1c(=O)[nH]c2nccc(Oc3ccc(NC(=O)c4cnn(-c5cccc(C(F)(F)F)n5)c4C(F)(F)F)cc3F)c21 [Example 22, N-(3-fluoro-4-((1-isopropyl-2-oxo-2,3-dihydro-1H-imidazo[4,5-b]pyridine-7-yl)oxy)phenyl)-5-(trifluoromethyl)-1-(6-(trifluoromethyl)pyridine-2-yl)-1H-pyrazole-4-carboxamide]",< 5.30,6.30 to 7.30
"COc1cccnc1-n1ncc(C(=O)Nc2ccc(Oc3ccnc4[nH]c(=O)n(C(C)C)c34)c(F)c2)c1C(F)(F)F [Example 28, N-(3-fluoro-4-((1-isopropyl-2-oxo-2,3-dihydro-1H-imidazo[4,5-b]pyridine-7-yl)oxy)phenyl)-1-(3-methoxypyridine-2-yl)-5-(trifluoromethyl)-1H-pyrazole-4-carboxamide]",5.30 to 6.30,> 7.30
"CCc1cccnc1-n1ncc(C(=O)Nc2ccc(Oc3ccnc4[nH]c(=O)n(C(C)C)c34)c(F)c2)c1C(F)(F)F [Example 29, 1-(3-ethylpyridine-2-yl)-N-(3-fluoro-4-((1-isopropyl-2-oxo-2,3-dihydro-1H-imidazo[4,5-b]pyridine-7-yl)oxy)phenyl)-5-(trifluoromethyl)-1H-pyrazole-4-carboxamide]",5.30 to 6.30,> 7.30
"CCc1ccnc(-n2ncc(C(=O)Nc3ccc(Oc4ccnc5[nH]c(=O)n(C(C)C)c45)c(F)c3)c2C(F)(F)F)c1 [Example 30, 1-(4-ethylpyridine-2-yl)-N-(3-fluoro-4-((1-isopropyl-2-oxo-2,3-dihydro-1H-imidazo[4,5-b]pyridine-7-yl)oxy)phenyl)-5-(trifluoromethyl)-1H-pyrazole-4-carboxamide]",5.30 to 6.30,6.30 to 7.30
"CC(C)n1c(=O)[nH]c2nccc(Oc3ccc(NC(=O)c4cnn(-c5cc(C6CC6)ccn5)c4C(F)(F)F)cc3F)c21 [Example 31, 1-(4-cyclopropylpyridine-2-yl)-N-(3-fluoro-4-((1-isopropyl-2-oxo-2,3-dihydro-1H-imidazo[4,5-b]pyridine-7-yl)oxy)phenyl)-5-(trifluoromethyl)-1H-pyrazole-4-carboxamide]",5.30 to 6.30,6.30 to 7.30
"CC(C)n1c(=O)[nH]c2nccc(Oc3ccc(NC(=O)c4cnn(-c5cc(C6=CCOCC6)ccn5)c4C(F)(F)F)cc3F)c21 [Example 32, 1-(4-(3,6-dihydro-2H-pyran-4-yl)pyridine-2-yl)-N-(3-fluoro-4-((1-isopropyl-2-oxo-2,3-dihydro-1H-imidazo[4,5-b]pyridine-7-yl)oxy)phenyl)-5-(trifluoromethyl)-1H-pyrazole-4-carboxamide]",5.30 to 6.30,6.30 to 7.30
"COc1ccnc(-n2ncc(C(=O)Nc3ccc(Oc4ccnc5[nH]c(=O)n(C(C)C)c45)c(F)c3)c2C(F)(F)F)c1 [Example 33, N-(3-fluoro-4-((1-isopropyl-2-oxo-2,3-dihydro-1H-imidazo[4,5-b]pyridine-7-yl)oxy)phenyl)-1-(4-methoxypyridine-2-yl)-5-(trifluoromethyl)-1H-pyrazole-4-carboxamide]",5.30 to 6.30,> 7.30

# Now from value to compound:
pIC50 (cMET),pIC50 (RON),Structure (SMILES)
5.30 to 6.30,> 7.30,"Cc1cccc(-n2ncc(C(=O)Nc3ccc(Oc4ccnc5[nH]c(=O)n(C(C)C)c45)c(F)c3)c2C(F)(F)F)n1 [Example 18, N-(3-fluoro-4-((1-isopropyl-2-oxo-2,3-dihydro-1H-imidazo[4,5-b]pyridine-7-yl)oxy)phenyl)-1-(6-methylpyridine-2-yl)-5-(trifluoromethyl)-1H-pyrazole-4-carboxamide]"
5.30 to 6.30,> 7.30,"CC(C)n1c(=O)[nH]c2nccc(Oc3ccc(NC(=O)c4cnn(-c5ncccc5Br)c4C(F)(F)F)cc3F)c21 [Example 19, 1-(3-bromopyridine-2-yl)-N-(3-fluoro-4-((1-isopropyl-2-oxo-2,3-dihydro-1H-imidazo[4,5-b]pyridine-7-yl)oxy)phenyl)-5-(trifluoromethyl)-1H-pyrazole-4-carboxamide]"
5.30 to 6.30,> 7.30,"CC(C)n1c(=O)[nH]c2nccc(Oc3ccc(NC(=O)c4cnn(-c5nccc6ccccc56)c4C(F)(F)F)cc3F)c21 [Example 20, N-(3-fluoro-4-((1-isopropyl-2-oxo-2,3-dihydro-1H-imidazo[4,5-b]pyridine-7-yl)oxy)phenyl)-1-(isoquinoline-1-yl)-5-(trifluoromethyl)-1H-pyrazole-4-carboxamide]"
5.30 to 6.30,> 7.30,"CC(C)n1c(=O)[nH]c2nccc(Oc3ccc(NC(=O)c4cnn(-c5cccnc5)c4C(F)(F)F)cc3F)c21 [Example 23, N-(3-fluoro-4-((1-isopropyl-2-oxo-2,3-dihydro-1H-imidazo[4,5-b]pyridine-7-yl)oxy)phenyl)-1-(pyridine-3-yl)-5-(trifluoromethyl)-1H-pyrazole-4-carboxamide]"
5.30 to 6.30,> 7.30,"CC(C)n1c(=O)[nH]c2nccc(Oc3ccc(NC(=O)c4cnn(-c5ccncc5)c4C(F)(F)F)cc3F)c21 [Example 24, N-(3-fluoro-4-((1-isopropyl-2-oxo-2,3-dihydro-1H-imidazo[4,5-b]pyridine-7-yl)oxy)phenyl)-1-(pyridine-4-yl)-5-(trifluoromethyl)-1H-pyrazole-4-carboxamide]"
5.30 to 6.30,> 7.30,"CC(C)n1c(=O)[nH]c2nccc(Oc3ccc(NC(=O)c4cnn(-c5ncccn5)c4C(F)(F)F)cc3F)c21 [Example 25, N-(3-fluoro-4-((1-isopropyl-2-oxo-2,3-dihydro-1H-imidazo[4,5-b]pyridine-7-yl)oxy)phenyl)-1-(pyrimidine-2-yl)-5-(trifluoromethyl)-1H-pyrazole-4-carboxamide]"
5.30 to 6.30,> 7.30,"Cc1ccnc(-n2ncc(C(=O)Nc3ccc(Oc4ccnc5[nH]c(=O)n(C(C)C)c45)c(F)c3)c2C(F)(F)F)n1 [Example 26, N-(3-fluoro-4-((1-isopropyl-2-oxo-2,3-dihydro-1H-imidazo[4,5-b]pyridine-7-yl)oxy)phenyl)-1-(4-methylpyrimidine-2-yl)-5-(trifluoromethyl)-1H-pyrazole-4-carboxamide]"
5.30 to 6.30,> 7.30,"CC(C)n1c(=O)[nH]c2nccc(Oc3ccc(NC(=O)c4cnn(-c5ccncn5)c4C(F)(F)F)cc3F)c21 [Example 27, N-(3-fluoro-4-((1-isopropyl-2-oxo-2,3-dihydro-1H-imidazo[4,5-b]pyridine-7-yl)oxy)phenyl)-1-(pyrimidine-4-yl)-5-(trifluoromethyl)-1H-pyrazole-4-carboxamide]"

# Reference: US20240317739A1, “NOVEL UREA DERIVATIVE COMPOUND AS RON INHIBITOR” (LG CHEM, LTD., priority 2021, published 2024)
